Data from patent US20110281812A1, “Compounds” (priority 2009, published 2011).
Where two headings read alike, the source gives them in different places.

Tests used:
[1] = system: male BALB/cJ mice; test: Lung neutrophilia induced by bacterial lipopolysaccharide in male BALB/cJ mice - Method B; assay type: in vivo; settings: Mus musculus, ip, 24 h, single dose of 100 mg/kg i.p., vs LPS challenged untreated animals
Protocol: For intraperitoneal administration (i.p.) compounds were dissolved in a final concentration of 10 mg/mL. The required amount of compound was first dissolved in dimethylsulfoxide (DMSO, Sigma) and then diluted with 0.5% (w/v) methyl-cellulose so that the final DMSO concentration was 5% (v/v). The obtained solution was applied in a dose volume of 0.1 mL per 10 g of animal. Therefore, the compound dose was 100 mg/kg.
Male BALB/cJ mice (Charles River, Germany), with an average weight of ˜25 g were randomly grouped (n=8 in testing group, 10 in positive control and 6-8 in negative control). Mice received intraperitoneally (i.p.) a single dose of 100 mg/kg of test compound. Two hours after administration, 0.4 μg of LPS (from Escherichia coli serotype 0111:B4, Sigma), dissolved in sterile saline (0.9% NaCl) in a volume of 50 μL, was intranasally administered to all experimental groups except the negative control group, which received the same volume of vehicle (saline). Animals were sacrificed approximately 24 hours after application of LPS in order to obtain bronchoalveolar lavage fluid (BALF), which was used to determine absolute number of cells and the percentage of neutrophils. […] In some experiments neutrophil levels in BALF were assessed by measurement of concentration of a neutrophil-specific enzyme myeloperoxidase (MPO). Results are then expressed as percentage of decrease in myeloperoxidase (MPO) concentration measured in BALF lysates of treated animals compared to positive control (Mouse MPO ELISA Kit, Hycult biotechnology, Nederlands). For this purpose, BALF was sonicated after addition of 1.5% Triton-X-100 (Pharmacia Biotech) in Milli-Q water and frozen at −80° C. until analysed.

[2] = system: IL-6 production in LPS-stimulated murine spleenocytes; test: Inhibition of IL-6 production in LPS-stimulated murine spleenocytes in vitro; assay type: cell-based; settings: Mus musculus, 50 μM concentration of the compound, read-out: inhibition of interleukin-6 (IL-6) production
Protocol: Test and reference substances used in an in vitro assays were dissolved in dimethyl sulfoxide (DMSO) (Sigma Chemical Co., USA) at a concentration of 50 mM and were further diluted to test concentrations in appropriate cell culture medium.
After cervical dislocation, mouse spleens were removed using sterile dissection tools. Spleens were transferred to a pre-wetted cell strainer in a 50 mL sterile conical tube and cell suspension was made by gentle puddle. Cells were centrifuged (20 min, 300×g) and resuspended in 2 mL of sterile phosphate buffered saline (PBS) (Sigma Chemical Co., USA). Red blood cells were lysed by addition of 3 mL of sterile water and occasionally gentle shaking for 1 minute. Afterwards, the tube was filled to 40 mL with DMEM medium and centrifuged (20 min, 300×g). Cells were resuspended in DMEM supplemented with 1% FBS and seeded in a 24-well plate, 1×10^6 cells per mL medium.
Final concentrations of 50 μM, 25 μM, 12.5 μM, 6.3 μM and 3.1 μM of test compounds were prepared by diluting a 50 mM DMSO stock in Dulbecco's modified Eagle medium (DMEM) (Gibco, USA) supplemented with 1% heat inactivated fetal bovine serum (FBS) (BioWest, Ringmer, United Kingdom).
Cells were pre-incubated with the test compounds for 3 h at 37° C., in an atmosphere of 5% CO2 and 90% humidity. Afterwards, cells were stimulated with 1 μg/mL lipopolysaccharide (LPS, E. coli 0111:B4, Sigma Chemical Co., USA) and incubated overnight. Concentration of IL-6 was determined in cell supernatants by sandwich ELISA using capture and detection antibodies (R&D Systems, USA) according to the manufacturer's recommendations.
Inhibition (as percentage) was calculated using the following formula:
% inhibition=[1−(concentration of IL-6 in sample−concentration of IL-6 in negative control)/(concentration of IL-6 in positive control−concentration of IL-6 in negative control)]×100.
The positive control refers to LPS-stimulated samples that were not preincubated with the compounds.
The negative control refers to unstimulated and untreated samples.

[3] = Neutrophil, read-out: inhibition of number of neutrophils or decrease in myeloperoxidase concentration in BALF
[4] = read-out: inhibition of total cell number in BALF

Row | Structure (SMILES) | inhibition in vivo at 100 mg/kg [1, 3] [%] | inhibition in vivo at 100 mg/kg [1, 4] [%] | inhibition at 50 µM [2] [%]
1 | CC[C@H]1OC(=O)[C@H](C)[C@@H](O[C@H]2C[C@@](C)(OC)[C@@H](O)[C@H](C)O2)[C@H](C)[C@@H](O[C@@H]2O[C@H](C)C[C@H](N(C)C)[C@H]2OCCCNC(=O)CN(C)C)[C@](C)(O)C[C@@H](C)CN(C)[C@H](C)[C@@H](O)[C@]1(C)O [Example 7, 2′-O-{3-[(N,N-Dimethylglycyl)amino]propyl}-9-deoxo-9a-methyl-9a-aza-9a-homoerythromycin A] | > 30 | > 30 | > 40
2 | CC[C@H]1OC(=O)[C@H](C)[C@@H](O[C@H]2C[C@@](C)(OC)[C@@H](O)[C@H](C)O2)[C@H](C)[C@@H](O[C@@H]2O[C@H](C)C[C@H](N(C)C)[C@H]2OCCCNC(=O)CCC(=O)OC)[C@](C)(O)C[C@@H](C)CN(C)[C@H](C)[C@@H](O)[C@]1(C)O [Example 13, 2′-O-(3-{[4-(Methyloxy)-4-oxobutanoyl]amino}propyl)-9-deoxo-9a-methyl-9a-aza-9a-homoerythromycin A] | > 50 | > 50 | > 40
3 | CC[C@H]1OC(=O)[C@H](C)[C@@H](O[C@H]2C[C@@](C)(OC)[C@@H](O)[C@H](C)O2)[C@H](C)[C@@H](O[C@@H]2O[C@H](C)C[C@H](N(C)C)[C@H]2OCCCNC(=O)CCCC(=O)OC)[C@](C)(O)C[C@@H](C)CN(C)[C@H](C)[C@@H](O)[C@]1(C)O [Example 14, 2′-O-(3-{[5-(Methyloxy)-5-oxopentanoyl]amino}propyl)-9-deoxo-9a-methyl-9a-aza-9a-homoerythromycin A] | > 30 | > 30 | > 40
4 | CC[C@H]1OC(=O)[C@H](C)[C@@H](O[C@H]2C[C@@](C)(OC)[C@@H](O)[C@H](C)O2)[C@H](C)[C@@H](O[C@@H]2O[C@H](C)C[C@H](N(C)C)[C@H]2OCCCNC(=O)C2CCC2)[C@](C)(O)C[C@@H](C)CN(C)[C@H](C)[C@@H](O)[C@]1(C)O [Example 15, 2′-O-{3-[(Cyclobutylcarbonyl)amino]propyl}-9-deoxo-9a-methyl-9a-aza-9a-homoerythromycin A] | > 30 | > 30 | > 40
5 | CC[C@H]1OC(=O)[C@H](C)[C@@H](O[C@H]2C[C@@](C)(OC)[C@@H](O)[C@H](C)O2)[C@H](C)[C@@H](O[C@@H]2O[C@H](C)C[C@H](N(C)C)[C@H]2OCCCNC(=O)c2ccoc2)[C@](C)(O)C[C@@H](C)CN(C)[C@H](C)[C@@H](O)[C@]1(C)O [Example 17, 2′-O-{3-[(3-Furanylcarbonyl)amino]propyl}-9-deoxo-9a-methyl-9a-aza-9a-homoerythromycin A] | > 50 | > 50 | > 40
6 | CC[C@H]1OC(=O)[C@H](C)[C@@H](O[C@H]2C[C@@](C)(OC)[C@@H](O)[C@H](C)O2)[C@H](C)[C@@H](O[C@@H]2O[C@H](C)C[C@H](N(C)C)[C@H]2OCCCNC(=O)c2cnc(C)cn2)[C@](C)(O)C[C@@H](C)CN(C)[C@H](C)[C@@H](O)[C@]1(C)O [Example 18, 2′-O-(3-{[(5-Methyl-2-pyrazinyl)carbonyl]amino}propyl)-9-deoxo-9a-methyl-9a-aza-9a-homoerythromycin A] | > 50 | > 50 | > 40
7 | CC[C@H]1OC(=O)[C@H](C)[C@@H](O[C@H]2C[C@@](C)(OC)[C@@H](O)[C@H](C)O2)[C@H](C)[C@@H](O[C@@H]2O[C@H](C)C[C@H](N(C)C)[C@H]2OCCCNC(=O)c2c(C)nn(C)c2C)[C@](C)(O)C[C@@H](C)CN(C)[C@H](C)[C@@H](O)[C@]1(C)O [Example 19, 2′-O-(3-{[(1,3,5-Trimethyl-1H-pyrazol-4-yl)carbonyl]amino}propyl)-9-deoxo-9a-methyl-9a-aza-9a-homoerythromycin A] | > 50 | > 50 | > 40
8 | CC[C@H]1OC(=O)[C@H](C)[C@@H](O[C@H]2C[C@@](C)(OC)[C@@H](O)[C@H](C)O2)[C@H](C)[C@@H](O[C@@H]2O[C@H](C)C[C@H](N(C)C)[C@H]2OCCCNC(=O)c2ccc(C)nc2Cl)[C@](C)(O)C[C@@H](C)CN(C)[C@H](C)[C@@H](O)[C@]1(C)O [Example 35, 2′-O-(3-{[(2-Chloro-6-methyl-3-pyridinyl)carbonyl]amino}propyl)-9-deoxo-9a-methyl-9a-aza-9a-homoerythromycin A] |  |  | > 40
9 | CC[C@H]1OC(=O)[C@H](C)[C@@H](O[C@H]2C[C@@](C)(OC)[C@@H](O)[C@H](C)O2)[C@H](C)[C@@H](O[C@@H]2O[C@H](C)C[C@H](N(C)C)[C@H]2OCCCNC(=O)c2nccnc2N)[C@](C)(O)C[C@@H](C)CN(C)[C@H](C)[C@@H](O)[C@]1(C)O [Example 37, 2′-O-(3-{[(3-Amino-2-pyrazinyl)carbonyl]amino}propyl)-9-deoxo-9a-methyl-9a-aza-9a-homoerythromycin A] |  |  | > 40
10 | CC[C@H]1OC(=O)[C@H](C)[C@@H](O[C@H]2C[C@@](C)(OC)[C@@H](O)[C@H](C)O2)[C@H](C)[C@@H](O[C@@H]2O[C@H](C)C[C@H](N(C)C)[C@H]2OCCCNC(=O)c2c(C)nn(C)c2Cl)[C@](C)(O)C[C@@H](C)CN(C)[C@H](C)[C@@H](O)[C@]1(C)O [Example 38, 2′-O-(3-{[(5-Chloro-1,3-dimethyl-1H-pyrazol-4-yl)carbonyl]amino}propyl)-9-deoxo-9a-methyl-9a-aza-9a-homoerythromycin A] |  |  | > 40
11 | CC[C@H]1OC(=O)[C@H](C)[C@@H](O[C@H]2C[C@@](C)(OC)[C@@H](O)[C@H](C)O2)[C@H](C)[C@@H](O[C@@H]2O[C@H](C)C[C@H](N(C)C)[C@H]2OCCCNC(=O)c2nc(C)oc2C)[C@](C)(O)C[C@@H](C)CN(C)[C@H](C)[C@@H](O)[C@]1(C)O [Example 39, 2′-O-(3-{[(2,5-Dimethyl-1,3-oxazol-4-yl)carbonyl]amino}propyl)-9-deoxo-9a-methyl-9a-aza-9a-homoerythromycin A] |  |  | > 40
12 | CC[C@H]1OC(=O)[C@H](C)[C@@H](O[C@H]2C[C@@](C)(OC)[C@@H](O)[C@H](C)O2)[C@H](C)[C@@H](O[C@@H]2O[C@H](C)C[C@H](N(C)C)[C@H]2OCCCNC(=O)[C@@H]2CCCN2C)[C@](C)(O)C[C@@H](C)CN(C)[C@H](C)[C@@H](O)[C@]1(C)O [Example 40, 2′-O-{3-[(1-Methyl-L-prolyl)amino]propyl}-9-deoxo-9a-methyl-9a-aza-9a-homoerythromycin A] |  |  | > 40
13 | CC[C@H]1OC(=O)[C@H](C)[C@@H](O[C@H]2C[C@@](C)(OC)[C@@H](O)[C@H](C)O2)[C@H](C)[C@@H](O[C@@H]2O[C@H](C)C[C@H](N(C)C)[C@H]2OCCCNC(=O)CC(C)C)[C@](C)(O)C[C@@H](C)CN(C)[C@H](C)[C@@H](O)[C@]1(C)O [Example 41, 2′-O-{3-[(3-Methylbutanoyl)amino]propyl}-9-deoxo-9a-methyl-9a-aza-9a-homoerythromycin A] |  |  | > 40
